Results on 20 compounds are retold here after US9980943B2, “Methods of treating muscular dystrophy” (BOARD OF REGENTS OF THE NEVADA SYSTEM OF HIGHER EDUCATION, …, priority 2013, dated 2018).

Read-outs that look alike come from different tables or passages of the source.

The assay deals with α7 integrin (LacZ reporter in α7LacZ+/− myoblasts). Description: qHTS of the LOPAC library and MLSMR (online screen, α7LacZ+/− myoblasts). The conditions noted are these: Mus musculus, Myoblast; for activation at 0.307 µM: read-out: Activity at 0.307 uM [%] **; for activation at 1.53 µM: read-out: Activity at 1.530 uM [%] **; for activation at 7.66 µM: read-out: Activity at 7.660 uM [%] **; for activation at 38.3 µM: read-out: Activity at 38.30uM [%] **; for EC50: read-out: Fit LogAC50 (converted). On the technique in general: Quantitative high-throughput screening tests each substance at several concentrations.

[1] abbreviates: 48 h, read-out: Fit Infinite Activity [%].

Consider `CN(CC(=O)Nc1cccc(F)c1)C(=O)c1ccc(-c2ccc(Cl)cc2)o1` [Compound 90], for which the EC50 was 11.2 µM. For the same compound, where the note is “48 h”, the activation at 0.307 µM amounted to 2.83%, the activation at 1.53 µM stood at 8.12%, the activation at 7.66 µM was 27.2% and the activation at 38.3 µM was 146%. For the same compound, under setting [1], the Emax came out at 146%. In addition, for the setting “read-out: Max Response [%]”, the Emax was determined as 146%.

Consider `Cc1cc(C(=O)Nc2cccc3ccccc23)c(C)o1` [Compound 153], for which, for the setting “48 h”, the activation at 0.307 µM was -20.8%, the activation at 1.53 µM is -14.3%, the activation at 7.66 µM came to 26.2% and the activation at 38.3 µM stood at 66%. Further, under setting [1], the Emax was found to be 74.5%. Where the note is “read-out: Max Response [%]”, the Emax was 66%.

On to `NS(=O)(=O)c1ccc(NC(=O)c2ccc(CNS(=O)(=O)c3cc(C(F)(F)F)ccc3Cl)cc2)cc1` [Compound 207], for which the EC50 is 10 µM. Moreover, where the note is “48 h”, the activation at 0.307 µM was determined as 0.545%, the activation at 1.53 µM came to 0%, the activation at 7.66 µM was 25.5% and the activation at 38.3 µM was determined as 73.3%. Further, the Emax under setting [1] amounted to 75.5%. Besides, the Emax (read-out: Max Response [%]) is 73.3%.

As for `COc1ccccc1CNc1cc(C)ccn1` [Compound 31], the EC50 was 2.51 µM. For the setting “48 h”, the activation at 0.307 µM was -22.9%, the activation at 1.53 µM was -0.943%, the activation at 7.66 µM worked out at 53.2% and the activation at 38.3 µM came to 62.3%. The Emax under setting [1] was determined as 62.2%.

In the case of `CCCCNc1nnc(SCC(=O)c2c(N)n(CCC)c(=O)[nH]c2=O)s1` [Compound 69], the EC50 was 3.98 µM. For the same compound, where the note is “48 h”, the activation at 0.307 µM came out at 0%, the activation at 1.53 µM worked out at 16.2%, the activation at 7.66 µM amounted to 62.8% and the activation at 38.3 µM turned out to be 84.4%. Moreover, the Emax under setting [1] was 88.1%. Moreover, the Emax (read-out: Max Response [%]) was found to be 84.4%.

For `COc1cc(Cl)cc(CN2CCC(CCC(=O)NC3CC3)CC2)c1OC` [Compound 167], under “48 h”, the activation at 0.307 µM is -38.2%, the activation at 1.53 µM is -33.5%, the activation at 7.66 µM amounted to 9.56% and the activation at 38.3 µM came out at 44%. Besides, the Emax under setting [1] was found to be 48.6%. Where the note is “read-out: Max Response [%]”, the Emax was 44%.

Turning to `CN(C)c1ccnc2sc(C(N)=O)c(N)c12` [Compound 87], under “48 h”, the activation at 0.307 µM came to 20.9%, the activation at 1.53 µM came to 26.5%, the activation at 7.66 µM was 69.1% and the activation at 38.3 µM was found to be 86.5%. Besides, the Emax under setting [1] was 87.8%. Moreover, the Emax (read-out: Max Response [%]) was determined as 86.5%.

`N#Cc1ccc(Sc2nc3ccccc3[nH]2)cc1C#N` [Compound 218]: the EC50 was 10 µM. Further, under “48 h”, the activation at 0.307 µM was found to be 14%, the activation at 1.53 µM was determined as 13.1%, the activation at 7.66 µM amounted to 29.8% and the activation at 38.3 µM was found to be 71.5%. Further, the Emax under setting [1] is 71.8%. For the same compound, under “read-out: Max Response [%]”, the Emax is 71.5%.

Take `COc1ccccc1C(=O)NCC(=O)/N=N/c1c(O)n(C(C)C)c2ccccc12` [Compound 139]: under “48 h”, the activation at 0.307 µM was 15.2%, the activation at 1.53 µM amounted to 14.6%, the activation at 7.66 µM was 25% and the activation at 38.3 µM was found to be 81.7%. In addition, the Emax under setting [1] came to 82%. Besides, where the note is “read-out: Max Response [%]”, the Emax was found to be 81.7%.

On to `CS(=O)(=O)N(Cc1ccc(C(=O)NC2CCCC2)cc1)c1ccccc1` [Compound 63], for which the EC50 is 10 µM. Further, for the setting “48 h”, the activation at 0.307 µM was -3.95%, the activation at 1.53 µM amounted to 2.24%, the activation at 7.66 µM came out at 57.8% and the activation at 38.3 µM worked out at 196%. In addition, the Emax under setting [1] was found to be 199%. For the same compound, the Emax (read-out: Max Response [%]) came out at 196%.

As to `CNP(=O)(Oc1ccccc1)OC12CC3CC(CC(C3)C1)C2` (centres unmarked) [Compound 182], the EC50 is 10 µM. Also, for the setting “48 h”, the activation at 0.307 µM came out at 0%, the activation at 1.53 µM was 0%, the activation at 7.66 µM worked out at 34.7% and the activation at 38.3 µM amounted to 93.6%. In addition, the Emax under setting [1] came to 98.2%. Also, the Emax (read-out: Max Response [%]) was 93.6%.

As for `COC(=O)C1SCC2C(=O)N(Cc3ccc(F)cc3)CC(=O)N21` (centres unmarked) [Compound 187], under “48 h”, the activation at 0.307 µM is -53.6%, the activation at 1.53 µM was -42.4%, the activation at 7.66 µM is -1.79% and the activation at 38.3 µM is 51.5%. Moreover, the Emax under setting [1] came to 65.7%. Moreover, the Emax (read-out: Max Response [%]) came to 51.5%.

For the compound `CCc1c(C2(O)CCCCC2)[nH]c2ncccc12` [Compound 135], the EC50 was 10 µM. Under “48 h”, the activation at 0.307 µM is -28.5%, the activation at 1.53 µM was -29.4%, the activation at 7.66 µM was -11.2% and the activation at 38.3 µM was 62%. Further, under setting [1], the Emax stood at 61.8%. Moreover, the Emax (read-out: Max Response [%]) came to 62%.

With `CCOC(=O)Cc1csc(NC(=S)NC(=O)c2cc(OC)c(OC)c(OC)c2)n1` [Compound 20], the EC50 was 3.55 µM. Under “48 h”, the activation at 0.307 µM was -18.1%, the activation at 1.53 µM was -4.46%, the activation at 7.66 µM is 69.3% and the activation at 38.3 µM amounted to 82.9%. Moreover, under setting [1], the Emax stood at 83.9%.

Consider `Cc1ccc(NC(=O)C2CCCCC2C(=O)O)cc1C` (centres unmarked) [Compound 114], for which the EC50 was 11.2 µM. For the same compound, under “48 h”, the activation at 0.307 µM was -6.72%, the activation at 1.53 µM was -1.25%, the activation at 7.66 µM came to 17.2% and the activation at 38.3 µM amounted to 135%. Also, the Emax under setting [1] amounted to 135%. Moreover, for the setting “read-out: Max Response [%]”, the Emax was 135%.

As to `COc1cccc(NC(=O)c2ccc3c(c2)CCCC3)c1` [Compound 162], where the note is “48 h”, the activation at 0.307 µM is -31.8%, the activation at 1.53 µM was -27.5%, the activation at 7.66 µM was 26.3% and the activation at 38.3 µM was 54.3%. The Emax under setting [1] turned out to be 55.3%. Further, the Emax (read-out: Max Response [%]) was 54.3%.

With `C=CCn1c(COc2ccc(Cl)cc2)nnc1SCc1ccc(C#N)cc1` [Compound 220], for the setting “48 h”, the activation at 0.307 µM amounted to 7.14%, the activation at 1.53 µM amounted to 9.51%, the activation at 7.66 µM turned out to be 27.6% and the activation at 38.3 µM is 93.8%. In addition, the Emax under setting [1] was found to be 95.1%. Further, the Emax (read-out: Max Response [%]) was 93.8%.

As to `CCS(=O)(=O)N1CCCC(C(=O)c2ccc(OC)cc2C)C1` (centres unmarked) [Compound 83], the EC50 was 11.2 µM. Further, for the setting “48 h”, the activation at 0.307 µM was -13.5%, the activation at 1.53 µM was -10.6%, the activation at 7.66 µM stood at 41.5% and the activation at 38.3 µM is 149%. The Emax under setting [1] came to 162%. For the same compound, the Emax (read-out: Max Response [%]) is 149%.

Turning to `CCc1nnc(NC(=O)c2ccc(S(=O)(=O)NCC(C)C)cc2)s1` [Compound 66], the EC50 is 12.6 µM. For the same compound, for the setting “48 h”, the activation at 0.307 µM is 16.2%, the activation at 1.53 µM came to 8.68%, the activation at 7.66 µM was 32.8% and the activation at 38.3 µM came to 225%. Further, the Emax under setting [1] was determined as 227%. For the same compound, the Emax (read-out: Max Response [%]) worked out at 225%.

Take `O=C(Nc1ccccc1F)c1ccc([N+](=O)[O-])s1` [Compound 81]: the EC50 is 12.6 µM. For the same compound, where the note is “48 h”, the activation at 0.307 µM is 1.83%, the activation at 1.53 µM came to 5.12%, the activation at 7.66 µM was found to be 24.3% and the activation at 38.3 µM was 215%. For the same compound, under setting [1], the Emax amounted to 216%. In addition, for the setting “read-out: Max Response [%]”, the Emax amounted to 215%.
